In US4401660A, “Ester derivatives of 5-O-mycaminosyl tylonolide and method of using same” (Eli Lilly and Company, priority 1981, dated 1983):
Read-outs that look alike come from different tables or passages of the source.

What was measured:
[1] = system: Streptococcus pyogenes C203; assay: ED50 in mice with experimental infections (Table IV); assay type: in vivo; conditions: Streptococcus pyogenes, doses given 1 and 4 hours postinfection
In short: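 Mice with experimental infections received test compound twice, at 1 and 4 h postinfection. ED50 is the dose in mg/kg (per administration, ×2) protecting 50% of animals.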

[2] = system: Streptococcus pneumoniae Park I; assay: MIC, standard agar-dilution assay (Table II); assay type: cell-based; set-up: unit not given here
Procedure: (§1) The MIC's in Table II were determined by standard agar-dilution assays. The MIC's in Table III were obtained using a conventional broth-dilution microtiter test.

[3] = system: Streptococcus pyogenes C203; assay: MIC, standard agar-dilution assay (Table II); assay type: cell-based; set-up: unit not given here
Procedure: as §1

[4] = system: Staphylococcus aureus V41; assay: MIC, standard agar-dilution assay (Table II); assay type: cell-based; set-up: unit not given here; conditions: Staphylococcus aureus V41, penicillin-resistant strain
Procedure: as §1

[5] = system: Haemophilus influenzae R252; assay: MIC, standard agar-dilution assay (Table II); assay type: cell-based; set-up: unit not given here; conditions: Haemophilus influenzae R252, ampicillin-resistant strain
Procedure: as §1

[6] = system: Streptococcus Group D 9960; assay: MIC, standard agar-dilution assay (Table II); assay type: cell-based; set-up: unit not given here
Procedure: as §1

[7] = system: Staphylococcus aureus S13E; assay: MIC, standard agar-dilution assay (Table II); assay type: cell-based; set-up: unit not given here
Procedure: as §1

[8] = system: Staphylococcus aureus X1.1; assay: MIC, standard agar-dilution assay (Table II); assay type: cell-based; set-up: unit not given here
Procedure: as §1

[9] = system: Haemophilus influenzae Holt; assay: MIC, standard agar-dilution assay (Table II); assay type: cell-based; set-up: unit not given here; conditions: ampicillin-sensitive strain
Procedure: as §1

[10] = system: Staphylococcus epidermidis EPI2; assay: MIC, standard agar-dilution assay (Table II); assay type: cell-based; set-up: unit not given here
Procedure: as §1

[11] = system: Staphylococcus aureus X400; assay: MIC, standard agar-dilution assay (Table II); assay type: cell-based; set-up: unit not given here; conditions: Staphylococcus aureus X400, methicillin-resistant strain
Procedure: as §1

[12] = system: Staphylococcus epidermidis EPI1; assay: MIC, standard agar-dilution assay (Table II); assay type: cell-based; set-up: unit not given here
Procedure: as §1

[13] = system: Streptococcus Group D X66; assay: MIC, standard agar-dilution assay (Table II); assay type: cell-based; set-up: unit not given here
Procedure: as §1

[14] = system: Pasteurella multocida 40G; assay: MIC, broth-dilution microtiter test (Table III); assay type: cell-based; set-up: unit not given here
Procedure: as §1

[15] = system: Pasteurella haemolytica 41D; assay: MIC, broth-dilution microtiter test (Table III); assay type: cell-based; set-up: unit not given here
Procedure: as §1

[16] = system: Pasteurella multocida 17E; assay: MIC, broth-dilution microtiter test (Table III); assay type: cell-based; set-up: unit not given here; conditions: bovine isolate
Procedure: as §1

[17] = system: Pasteurella haemolytica 23C; assay: MIC, broth-dilution microtiter test (Table III); assay type: cell-based; set-up: unit not given here
Procedure: as §1

Mycoplasma synoviae = assay: MIC, broth-dilution microtiter test (Table III); assay type: cell-based; set-up: unit not given here
Procedure: as §1

[18] = system: Pasteurella multocida 68C; assay: MIC, broth-dilution microtiter test (Table III); assay type: cell-based; set-up: unit not given here
Procedure: as §1

[19] = system: Pasteurella multocida 22A; assay: MIC, broth-dilution microtiter test (Table III); assay type: cell-based; set-up: unit not given here
Procedure: as §1

Staphylococcus aureus = assay: MIC, broth-dilution microtiter test (Table III); assay type: cell-based; set-up: unit not given here
Procedure: as §1

[20] = system: Pasteurella multocida 60A; assay: MIC, broth-dilution microtiter test (Table III); assay type: cell-based; set-up: unit not given here; conditions: avian isolate
Procedure: as §1

Streptococcus sp. 80 = assay: MIC, broth-dilution microtiter test (Table III); assay type: cell-based; set-up: unit not given here
Procedure: as §1

Mycoplasma hyorhinis = assay: MIC, broth-dilution microtiter test (Table III); assay type: cell-based; set-up: unit not given here
Procedure: as §1

[21] = system: Pasteurella haemolytica 22C; assay: MIC, broth-dilution microtiter test (Table III); assay type: cell-based; set-up: unit not given here
Procedure: as §1

Mycoplasma gallisepticum = assay: MIC, broth-dilution microtiter test (Table III); assay type: cell-based; set-up: unit not given here
Procedure: as §1

Pasteurella multocida = assay: Treatment of Pasteurella infections in chicks (Table V); assay type: in vivo, one-day-old chicks; conditions: Pasteurella multocida, sc, 4 h; 30 mg/kg by subcutaneous injection one and four hours post challenge; read-out: Deaths in Treated Chicks/Number Treated (converted)
In short: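 One-day-old chicks challenged subcutaneously with avian P. multocida (0.1 ml of 10^-3 dilution of 20-hour tryptose broth culture). Esters given at 30 mg/kg subcutaneously at 1 and 4 hours post challenge. Untreated infected controls, ten per group.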

[22] = C203, oral, read-out: ED50, Oral
[23] = C203, sc, subcutaneous, read-out: ED50, Subcutaneous

Compound | ED50 [1, 22] | ED50 [1, 23] | minimal inhibitory concentration (MIC) [2] | minimal inhibitory concentration (MIC) [3] | minimal inhibitory concentration (MIC) [4] | minimal inhibitory concentration (MIC) [5] | minimal inhibitory concentration (MIC) [6] | minimal inhibitory concentration (MIC) [7] | minimal inhibitory concentration (MIC) [8] | minimal inhibitory concentration (MIC) [9] | minimal inhibitory concentration (MIC) [10] | minimal inhibitory concentration (MIC) [11] | minimal inhibitory concentration (MIC) [12] | minimal inhibitory concentration (MIC) [13] | minimal inhibitory concentration (MIC) [14] | minimal inhibitory concentration (MIC) [15] | minimal inhibitory concentration (MIC) [16] | minimal inhibitory concentration (MIC) [17] | minimal inhibitory concentration (MIC) (Mycoplasma synoviae) | minimal inhibitory concentration (MIC) [18] | further results
CCC1OC(=O)CC(O)C(C)C(OC2OC(C)C(O)C(N(C)C)C2OC(C)=O)C(CC=O)CC(C)C(=O)C=CC(C)=CC1CO (centres unmarked) [Compound 1, 2'-O-Acetyl-OMT] | > 150 mg/kg | 6.8 mg/kg | 0.5 | 0.5 | 4 | 4 | 4 | 4 | 2 | 4 | 2 | 4 | 2 | 2 | 6.25 | 12.5 | 1.56 | 12.5 | 0.39 | 3.12 | minimal inhibitory concentration (MIC) [19]: 3.12; minimal inhibitory concentration (MIC) (Staphylococcus aureus): 1.56; minimal inhibitory concentration (MIC) [20]: 1.56; minimal inhibitory concentration (MIC) (Streptococcus sp. 80): 0.78; minimal inhibitory concentration (MIC) (Mycoplasma hyorhinis): 3.12; minimal inhibitory concentration (MIC) [21]: 12.5; minimal inhibitory concentration (MIC) (Mycoplasma gallisepticum): 0.39; mortality at 30 mg/kg (Pasteurella multocida): 0%
CCC(=O)OCC1C=C(C)C=CC(=O)C(C)CC(CC=O)C(OC2OC(C)C(O)C(N(C)C)C2O)C(C)C(O)CC(=O)OC1CC (centres unmarked) [Compound 14, 23-O-Propionyl-OMT] | 106 mg/kg | 6 mg/kg | 0.125 | 0.125 | 0.25 | 4 | 0.25 | 0.25 | 0.25 | 1 | 0.125 | 0.25 | 0.125 | 0.25 | 1.56 | 6.25 | 1.56 | 3.12 | 0.05 | 1.56 | minimal inhibitory concentration (MIC) [19]: 3.12; minimal inhibitory concentration (MIC) (Staphylococcus aureus): 0.39; minimal inhibitory concentration (MIC) [20]: 0.78; minimal inhibitory concentration (MIC) (Streptococcus sp. 80): 0.195; minimal inhibitory concentration (MIC) (Mycoplasma hyorhinis): 6.25; minimal inhibitory concentration (MIC) [21]: 6.25; minimal inhibitory concentration (MIC) (Mycoplasma gallisepticum): 0.05; mortality at 30 mg/kg (Pasteurella multocida): 0%
